Values after ≈ are worked out from the molar mass of the structure shown.
Key:
C. krusei ATCC 6258 = assay: In vitro antimicrobial assay (modified NCCLS), Candida media pH 4.5; format: cell-based, Candida krusei; settings: Pichia kudriavzevii, ATCC6258, pH 4.5, read-out: IC50 (50% inhibitory concentration)
[1] = system: M. intracellulare ATCC 23068; assay: In vitro antibacterial assay (modified method of Franzblau, Alamar Blue); format: cell-based; settings: Mycobacterium intracellulare
[2] = system: Azole-susceptible and Azole-resistant Candida albicans Strains; assay: Antifungal activity against azole-susceptible and azole-resistant patient isolates; format: cell-based; settings: for IC50 / IC80: Candida albicans; for Activity against fluconazole-resistant C. albicans strains (in words): isolates from patients during fluconazole therapy
Description: Antimicrobial Assay. Susceptibility testing is performed using a modified version of the National Committee for Clinical Laboratory Standards methods. M intracelluare is tested using a modified method of Franzblau, et al. Seventy-two to 96 h prior to the assay, the M intracellulare subculture is prepared by resuspending cells from the surface of the slant in Middlebrook 7H9 broth with OADC enrichment and incubating at 37° C. and 10% CO2. On the day of the assay, prepared samples (dissolved in DMSO) are serially-diluted using 20%/0.9% DMSO/saline and transferred in duplicate to 96 well flat bottom microplates. Candida spp. and C. neoformans inocula are prepared by picking 1–3 colonies from agar plates and resuspending in ˜5 mL 0.9% sterile saline. The absorption of 10011 of the saline suspensions and the M. intracellulare subculture at 630 nm using the EL-340 Biokinetics Reader (Bio-Tek Instruments, Vermont) is compared either the 0.5 McFarland standard of 0.03 (Mi) or standard curves. The microorganisms are diluted in broth [RPMI 1640/2% dextrose/MOPS at pH 7.3 (Cellgro) for Candida spp., Sabouraud Dextrose for C. neoformans, and 5% Alamar Blue™(BioSource International, Camarillo, Calif.) in Middlebrook 7H9 broth with OADC enrichment, pH=7.3 for M. intracellulare to afford final target inocula of: Candida spp.: 1.0×10^4, C. neoformans: 1.0×10^5, and M. intracellulare: 2.0×10^6 after addition to the samples. The microbial inocula are added to the samples to achieve a final volume of 200 μl. Growth (saline only), solvent and blank (media only) controls are included on each test plate. Drug controls [Ciprofloxacin (ICN Biomedicals, Ohio) for bacteria and Amphotericin B (ICN Biomedicals, Ohio) for fungi] are included in each assay. All organisms are read at either 630 nm using the EL-340 Biokinetics Reader (Bio-Tek Instruments, Vermont) or 544ex/590em, (M. intracellulare) using the Polarstar Galaxy Plate Reader (BMG LabTechnologies, Germany) prior to and after incubation: Candida spp. at 37° C. for 18–24 h, C. neoformans at 30° C. for 72 h, and M. intracellulare at 37° C. and 10% CO2 for 72 h. Percent growth is calculated and plotted versus test concentration to afford the IC50 (sample concentration that affords 50% growth of the organism) and the minimum inhibitory concentration (MIC) and minimum fungicidal or bactericidal concentrations (MFC/MBCs). The MIC is defined as the lowest test concentration that allows no detectable growth (for M. intracellulare no color change from blue to pink). Minimum fungicidal or bactericidal concentrations are determined by removing 5 μl from each clear (or blue) well, transferring to agar and incubating as previously mentioned. The MFC/MBC is defined as the lowest test concentration that kills 100% of the organism (allows no growth on agar).
The bioassay method is a modified version of the National Committee for Clinical Laboratory Standards methods, and is same as the one described in example 8 by which the biological data of compounds 1 and 2 (Tables 1 and 2) were obtained, except that the pH of the culture media for Candida spp. was changed from 7.3 to 4.5.

C. glabrata ATCC 90030 = assay: In vitro antimicrobial assay (modified NCCLS), Candida media pH 4.5; format: cell-based, Candida glabrata; settings: Nakaseomyces glabratus
[3] = Isolate 1, azole-susceptible strain (first listing, r6)
[4] = Isolate 1, azole-susceptible strain (second listing, r10)
[5] = Isolate 2, azole-resistant strain
[6] = Isolate 5, azole-resistant strain
[7] = Isolate 8, azole-resistant strain
[8] = Isolate 17, azole-resistant strain

Which IC50 (C. krusei ATCC 6258) does the source give for `COC(/C=C/c1ccccc1)=C1\C(=O)C=C(C)C1=O` [Compound 1, coruscanone A] here?
Its IC50 is 2.5 µg/mL (≈ 9.83 µM).

And the IC50 ([1]; ATCC23068, read-out: IC50 (50% inhibitory concentration))?
Its IC50 is 1.5 µg/mL (≈ 5.9 µM).

What about the MIC ([1]; ATCC23068, M. intracellulare ATCC 23068) of the same compound?
Its MIC is 2.5 µg/mL (≈ 9.83 µM).

What about the MBC ([1]; ATCC23068, M. intracellulare ATCC 23068, read-out: MBC (Minimum Bactericidal Concentration)) of the same compound?
Its MBC is 5 µg/mL (≈ 19.7 µM).

And the IC50 [2, 3]?
Its IC50 is 0.6 µg/mL (≈ 2.36 µM).

What about the IC80 [2, 3] of the same compound?
The IC80 was 1 µg/mL (≈ 3.93 µM).

And the IC50 [2, 4]?
Its IC50 is 0.45 µg/mL (≈ 1.77 µM).

What about the IC80 [2, 4] of the same compound?
Its IC80 is 0.6 µg/mL (≈ 2.36 µM).

And the IC50 [2, 5]?
The IC50 was 0.9 µg/mL (≈ 3.54 µM).

What about the IC80 [2, 5] of the same compound?
The IC80 was 1 µg/mL (≈ 3.93 µM).

What about the IC50 [2, 6] of the same compound?
The IC50 was 0.4 µg/mL (≈ 1.57 µM).

And the IC80 [2, 6]?
The IC80 was 0.6 µg/mL (≈ 2.36 µM).

What about the IC50 [2, 7] of the same compound?
The IC50 was 0.9 µg/mL (≈ 3.54 µM).

What about the IC80 [2, 7] of the same compound?
The IC80 was 1 µg/mL (≈ 3.93 µM).

And the IC50 [2, 8]?
The IC50 was 0.3 µg/mL (≈ 1.18 µM).

And the IC80 [2, 8]?
The IC80 was 0.9 µg/mL (≈ 3.54 µM).

And the IC95 [2, 3]?
The IC95 was 1.50 µg/mL (≈ 5.9 µM).

What about the IC95 [2, 4] of the same compound?
Its IC95 is 0.75 µg/mL (≈ 2.95 µM).

What about the IC95 [2, 5] of the same compound?
Its IC95 is 1.50 µg/mL (≈ 5.9 µM).

And the IC95 [2, 6]?
The IC95 was 0.70 µg/mL (≈ 2.75 µM).

What about the IC95 [2, 7] of the same compound?
Its IC95 is 1.50 µg/mL (≈ 5.9 µM).

And the IC95 ([2]; Isolate 17, azole-resistant strain, highest test concentration 100 μg/mL)?
Its IC95 is 1.50 µg/mL (≈ 5.9 µM).

And the “Activity against fluconazole-resistant C. albicans strains (in words)” value [2]?
The value was “retains equivalent activity relative to the susceptible strains”.

And the “Activity against fluconazole-resistant C. albicans strains (in words)” value ([2]; listed as coruscanone A)?
The value was “inhibits”.

And the IC50 (C. glabrata ATCC 90030; ATCC90030, pH 4.5, read-out: IC50 (50% inhibitory concentration))?
Its IC50 is 2.5 µg/mL (≈ 9.83 µM).

What about the MIC (C. glabrata ATCC 90030; ATCC90030, C. glabrata ATCC 90030, pH 4.5, read-out: MIC) of the same compound?
Its MIC is 5 µg/mL (≈ 19.7 µM).

From patent US7109380B2, “Cyclopentenedione antifungal compounds and methods for their use” (The University of Mississippi, priority 2004, dated 2006)
